# How the values were obtained:
# [1] = test system: Capan-2 cells (KRAS G12V); test: Cell-based pERK HTRF assay in Capan-2 cells (Biological Example 5)
# Description: (§1) Biological Example 5: Cell-based PERK HTRF assay in AsPC-1, SW1900, HPAC, Capan-2, RKN, H358, HCT116, KP-2, H1573, A549, MKN1, and HT1080 cells
# (§2) The inhibition of ERK phosphorylation, as measured using the HTRF Advanced Phospho-ERK 1/2 (Thr202/Tyr204) Detection Assay kit (Perkin Elmer), was used to determine the effectiveness of test compounds in disrupting KRAS-driven protein/effector signaling in cells.
# (§3) On day 1, cells were seeded into 96-well plates at 2.5×10^4 cells/well in 100 μL of complete growth media supplemented with 10% fetal bovine serum (FBS) and incubated at 37° C., in the presence of 5% CO2.
# (§4) On day 2, cells were treated with compounds diluted in DMSO at 0.25% final DMSO concentration. Compounds were dosed in a 9-point concentration curve with three-fold dilution between concentrations. Cells were incubated in the presence of compound for two hours at 37° C. Following this treatment period, cells were harvested by aspirating the media, adding 40 μL of kit-supplied 1x lysis buffer per well, and shaking for 30 minutes at 250 rpm at room temperature.
# (§5) Following cell lysis, samples were homogenized by pipetting up and down twenty times and 16 μL of cell lysate per well was transferred from the 96-well cell culture plate to two wells of a 384-well detection plate. A complete detection buffer was prepared by diluting D2 and Eu Cryptate antibodies 1:20 in kit-provided detection solution, 4 μL of complete detection buffer was then added to each well with lysate. Plates were incubated with gentle rocking for 24 hours at 4° C.
# (§6) Following this incubation period, plates were centrifuged at 500×g for one minute and analyzed on a CLARIOstar plate reader. Data was imported into Microsoft Excel and the signal from the 665 nm channel was divided by the signal from the 620 nm channel. % pERK was calculated as: […]
# (§7) Data was imported to the Prism software package (Graphpad) and EC50 values were calculated using the log (inhibitor) vs, response—variable slopc (Four parameters) model.
# [2] = test system: Capan-2 cells (KRAS G12V); test: 3D Cell viability assay in Capan-2 cells (Biological Example 6); type: cell-based; settings: Capan-2 (KRAS G12V) spheroids, 72 hours
# Description: (§8) Biological Example 6: 3D Cell viability assay in AsPC-1, SW1900, HPAC, Capan-2, RKN, H358, HCT116, KP-2, H1573, A549, MKN1, and HT1080 cells
# (§9) The inhibition of cellular viability as a result of test compound treatment in a spheroid assay was measured using the CellTiter-Glow 3D Cell Viability Assay (Promega).
# (§10) On Day 1, 1000 cells per well were seeded in 150 μL of complete growth media supplemented with 10% fetal bovine serum (FBS) and incubated at 37° C., in the presence of 5% CO2 in 96-well ultra-low attachment microplates (Corning) for 48 hours undisturbed to allow spheroids to form.
# (§11) Following spheroid formation, cells were treated with compounds diluted in DMSO at 0.25% final DMSO concentration. Compounds were dosed in a 9-point concentration curve with three-fold dilution between concentrations. Cells were incubated in the presence of compound for 72 hours at 37° C., in the presence of 5% CO2.
# (§12) Following this incubation period, the kit-provided CTG reagent was allowed to equilibrate for 30 minutes at room temperature, 150 μL of equilibrated CTG reagent was added to each well, and the plate was sealed before shaking at 250 rpm for 10 minutes at room temperature to lyse the cells, 150 μL of lysate per well was transferred to a 96-well plate and luminescence was read on a CLARIOstar plate reader.
# (§13) Data was imported into the Prism software package (Graphpad) and EC50 values were calculated using the log (inhibitor) vs, response—variable slope (Four parameters) model.
# HCT116 cells (KRAS G13D) = test: 3D Cell viability assay in HCT116 cells (Biological Example 6); type: cell-based; settings: Homo sapiens, HCT-116; HCT116 (KRAS G13D) spheroids, 72 hours
# In short: (§14)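 Luminescent ATP read-out (CellTiter-Glo 3D) after 72 h compound exposure gives viability of preformed spheroids. Cells were seeded at 1000 per well in low-attachment plates and left 48 h to aggregate before dosing with nine three-fold concentrations at 0.25% DMSO.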
# [3] = test system: MKN1 cells (KRAS amplification); test: 3D Cell viability assay in MKN1 cells (Biological Example 6); type: cell-based; settings: MKN (MKN1, KRAS amplification) spheroids, 72 hours
# Description: as §8, §9, §10, §11, §12, §13
# SW1900 cells (KRAS G12D) [4] = test: 3D Cell viability assay in SW1900 cells (Biological Example 6); type: cell-based; settings: SW1990 (text: SW1900, KRAS G12D) spheroids, 72 hours
# In short: as §14
# AsPC-1 cells (KRAS G12D) = test: 3D Cell viability assay in AsPC-1 cells (Biological Example 6); type: cell-based; settings: AsPC-1 (KRAS G12D) spheroids, 72 hours
# Description: as §8, §9, §10, §11, §12, §13
# SW1900 cells (KRAS G12D) [5] = test: Cell-based pERK HTRF assay in SW1900 cells (Biological Example 5)
# Description: as §1, §2, §3, §4, §5, §6, §7
# H358 cells (KRAS G12C) [6] = test: Cell-based pERK HTRF assay in H358 cells (Biological Example 5)
# Description: as §1, §2, §3, §4, §5, §6, §7
# H358 cells (KRAS G12C) [7] = test: 3D Cell viability assay in H358 cells (Biological Example 6); type: cell-based; settings: H358 (KRAS G12C) spheroids, 72 hours
# In short: as §14
# HPAC cells (KRAS G12D) [8] = test: Cell-based pERK HTRF assay in HPAC cells (Biological Example 5)
# Description: as §1, §2, §3, §4, §5, §6, §7
# HPAC cells (KRAS G12D) [9] = test: 3D Cell viability assay in HPAC cells (Biological Example 6); type: cell-based; settings: HPAC (KRAS G12D) spheroids
# In short: as §14
# [10] = Homo sapiens, Capan-2, Capan-2 (KRAS G12V) cells
# [11] = Homo sapiens, SW1990, SW1990 cells (text: SW1900, KRAS G12D)
# [12] = Homo sapiens, NCI-H358, H358 (KRAS G12C) cells
# [13] = SW1990 cells (text: SW1900, KRAS G12D)
Structure (SMILES),"IC50 [1, 10] [nM]",IC50 ([2]; Homo sapiens) [nM],IC50 (HCT116 cells (KRAS G13D)) [nM],"IC50 ([3]; Homo sapiens, MKN-1) [nM]",IC50 (SW1900 cells (KRAS G12D) [4]; Homo sapiens) [nM],"IC50 (AsPC-1 cells (KRAS G12D); Homo sapiens, ASPC1) [nM]",IC50 (SW1900 cells (KRAS G12D) [5]; [11]) [nM],IC50 (H358 cells (KRAS G12C) [6]; [12]) [nM],"IC50 (H358 cells (KRAS G12C) [7]; Homo sapiens, NCI-H358) [nM]","IC50 (HPAC cells (KRAS G12D) [8]; Homo sapiens, HPAC) [nM]","IC50 (HPAC cells (KRAS G12D) [9]; Homo sapiens, HPAC, 72 h) [nM]",also measured
"CCN(c1nc(OC[C@@]23CCCN2C[C@H](F)C3)nc2c(F)c(-c3ccc(F)c4sc(N)c(C#N)c34)c(C(F)(F)F)cc12)[C@H]1C[C@H](C)N(C(=O)[C@@H]2CC2(F)F)C1 (atropisomer, axis not shown) [Compound 751]",≤ 100,≤ 100,100 to 1000,≤ 100,≤ 100,≤ 100,≤ 100,≤ 100,≤ 100,≤ 100,≤ 100,–
"Cc1c(C(=O)N(C)C)nn2c1CN(c1nc(OC[C@@]34CCCN3C[C@H](F)C4)nc3c(F)c(-c4ccc(F)c5sc(N)c(C#N)c45)c(C(F)(F)F)cc13)CC2 (atropisomer, axis not shown; (aS)) [Compound 590, 5-((S)-7-(2-amino-3-cyano-7-fluorobenzo[b]thiophen-4-yl)-8-fluoro-2-(((2R,7aS)-2-fluorotetrahydro-1H-pyrrolizin-7a(5H)-yl)methoxy)-6-(trifluoromethyl)quinazolin-4-yl)-N,N,3-trimethyl-4,5,6,7-tetrahydropyrazolo[1,5-a]pyrazine-2-carboxamide]",–,–,100 to 1000,–,–,–,–,–,–,–,–,IC50 ([1]; Capan-2 (KRAS G12V) cells): ≤ 100 nM; IC50 [2]: ≤ 100 nM; IC50 [3]: ≤ 100 nM; IC50 (SW1900 cells (KRAS G12D) [4]): ≤ 100 nM; IC50 (AsPC-1 cells (KRAS G12D)): ≤ 100 nM; IC50 (SW1900 cells (KRAS G12D) [5]; [13]): ≤ 100 nM; IC50 (H358 cells (KRAS G12C) [6]; H358 (KRAS G12C) cells): ≤ 100 nM; IC50 (H358 cells (KRAS G12C) [7]): ≤ 100 nM; IC50 (HPAC cells (KRAS G12D) [8]): ≤ 100 nM; IC50 (HPAC cells (KRAS G12D) [9]; 72 hours): ≤ 100 nM
"CCN(c1nc(OC[C@@]23CCCN2C[C@H](F)C3)nc2c(F)c(-c3ccc(F)c4sc(N)c(C#N)c34)c(C(F)(F)F)cc12)[C@H]1CC(=O)N2CCC[C@@H]12 (atropisomer, axis not shown; (aS)) [Compound 697, 2-amino-4-((S)-4-(ethyl((1S,7aS)-3-oxohexahydro-1H-pyrrolizin-1-yl)amino)-8-fluoro-2-(((2R,7aS)-2-fluorotetrahydro-1H-pyrrolizin-7a(5H)-yl)methoxy)-6-(trifluoromethyl)quinazolin-7-yl)-7-fluorobenzo[b]thiophene-3-carbonitrile]",≤ 100,≤ 100,100 to 1000,≤ 100,≤ 100,≤ 100,≤ 100,≤ 100,≤ 100,≤ 100,≤ 100,–
"N#Cc1c(N)sc2c(F)ccc(-c3c(C(F)(F)F)cc4c(N5CC6CC(C5)O6)nc(OC[C@@]56CCCN5C[C@H](F)C6)nc4c3F)c12 (single isomer, unassigned) [Compound 275]",≤ 100,≤ 100,100 to 1000,≤ 100,≤ 100,> 1000,≤ 100,≤ 100,≤ 100,100 to 1000,> 1000,–
CCN(c1nc(OC[C@@]23CCCN2C[C@H](F)C3)nc2c(F)c(-c3ccc(F)c4sc(N)c(C#N)c34)c(C(F)(F)F)cc12)[C@H]1CCN(C(C)=O)C1 [Compound 262],≤ 100,≤ 100,100 to 1000,≤ 100,≤ 100,≤ 100,≤ 100,≤ 100,≤ 100,≤ 100,≤ 100,–
CCN(c1nc(OC[C@@]23CCCN2C[C@H](F)C3)nc2c(F)c(-c3ccc(F)c4sc(N)c(C#N)c34)c(C(F)(F)F)cc12)[C@@H]1CCN(C(C)=O)C1 [Compound 268],≤ 100,≤ 100,100 to 1000,≤ 100,≤ 100,≤ 100,≤ 100,≤ 100,≤ 100,≤ 100,≤ 100,–
CCN(c1nc(OC[C@@]23CCCN2C[C@H](F)C3)nc2c(F)c(-c3ccc(F)c4sc(N)c(C#N)c34)c(C(F)(F)F)cc12)[C@H]1CCN(C(=O)C(C)C)C1 [Compound 332],–,≤ 100,100 to 1000,≤ 100,≤ 100,≤ 100,–,–,≤ 100,–,100 to 1000,IC50 ([1]; Capan-2 (KRAS G12V) cells): ≤ 100 nM; IC50 (SW1900 cells (KRAS G12D) [5]; [13]): ≤ 100 nM; IC50 (H358 cells (KRAS G12C) [6]; H358 (KRAS G12C) cells): ≤ 100 nM; IC50 (HPAC cells (KRAS G12D) [8]): ≤ 100 nM
CN(Cc1cccnc1N)c1nc(OC[C@@]23CCCN2C[C@H](F)C3)nc2c(F)c(-c3ccc(F)c4sc(N)c(C#N)c34)c(C(F)(F)F)cc12 [Compound 390],≤ 100,≤ 100,100 to 1000,≤ 100,≤ 100,≤ 100,≤ 100,≤ 100,≤ 100,≤ 100,100 to 1000,–
